Test systems include SR leukemia; UACC-257 melanoma; OVCAR-4 ovarian; MOLT-4 leukemia; HT29 colon; COLO 205 colon; OVCAR-3 ovarian; OVCAR-5 ovarian; SF-268 CNS; MALME-3M melanoma.
Common to all, as to assay: inhibition of tumour cell growth, NCI panel, 48 h

Each structure is given as a SMILES string.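 Test compounds were applied to cells in 96-well plates for 48 hours at 5 doses. The concentration for full growth arrest is given as TGI.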

As for `CC1CN=C(c2ccc3c(c2)Cc2cc(C4=NCC(C)N4)ccc2-3)N1` (stereo not given), the TGI in the experiment on SR leukemia was above 100 µM; with UACC-257 melanoma it was above 100 µM; with OVCAR-4 ovarian, 48.6 µM; in the experiment with MOLT-4 leukemia it was above 100 µM; in the experiment on HT29 colon, above 100 µM; in the experiment on COLO 205 colon, above 100 µM. Further, the TGI in the experiment with OVCAR-3 ovarian was 53.7 µM; in the experiment with OVCAR-5 ovarian, above 100 µM; in the experiment with SF-268 CNS it was 77.7 µM; in the experiment on MALME-3M melanoma, 46 µM.

Regarding `c1ccc2c3c(c(N4CCNCC4)nc2c1)CCCC3`, the TGI in the experiment with SR leukemia is above 100 µM; with UACC-257 melanoma, 20.6 µM; in the experiment on OVCAR-4 ovarian, 31.5 µM; in the experiment on MOLT-4 leukemia, above 100 µM; with HT29 colon, 28.3 µM; with COLO 205 colon, 18.9 µM. The TGI with OVCAR-3 ovarian turned out to be 40.1 µM; in the experiment with OVCAR-5 ovarian, 26.9 µM; in the experiment with SF-268 CNS, 33.8 µM; in the experiment on MALME-3M melanoma, 37.3 µM.

The values are drawn from PubChem BioAssay (NCI).
